Active and inactive are the calls of the source.
Key:
[1] = target: 72 kDa type IV collagenase (Homo sapiens, UniProt P08253); assay: Dose Response validation of uHTS RPN11 inhibitor hits using a MMP-2 Fluorescence assay.; type: functional
[2] = target: Prothrombin (Bos taurus, UniProt P00735); assay: thrombin protease inhibitors – biochemical, fluorescence polarization, uHTS hits, dose response (AID 602369); type: functional
[3] = target: 26S proteasome non-ATPase regulatory subunit 14 (Homo sapiens, UniProt O00487); assay: inhibition of proteasome subunit RPN11 – biochemical, fluorescence polarization, uHTS hits, confirmation (AID 602368); type: functional
[4] = target: T1, DNA repair and recombination protein RAD54-like (Homo sapiens, UniProt Q92698); assay: RAD54 Holliday junction migration blockers – biochemical, fluorescence, cherry-picked samples, dose series, confirmation (AID 651657); type: functional
T1 sequence (Q92698 whole entry): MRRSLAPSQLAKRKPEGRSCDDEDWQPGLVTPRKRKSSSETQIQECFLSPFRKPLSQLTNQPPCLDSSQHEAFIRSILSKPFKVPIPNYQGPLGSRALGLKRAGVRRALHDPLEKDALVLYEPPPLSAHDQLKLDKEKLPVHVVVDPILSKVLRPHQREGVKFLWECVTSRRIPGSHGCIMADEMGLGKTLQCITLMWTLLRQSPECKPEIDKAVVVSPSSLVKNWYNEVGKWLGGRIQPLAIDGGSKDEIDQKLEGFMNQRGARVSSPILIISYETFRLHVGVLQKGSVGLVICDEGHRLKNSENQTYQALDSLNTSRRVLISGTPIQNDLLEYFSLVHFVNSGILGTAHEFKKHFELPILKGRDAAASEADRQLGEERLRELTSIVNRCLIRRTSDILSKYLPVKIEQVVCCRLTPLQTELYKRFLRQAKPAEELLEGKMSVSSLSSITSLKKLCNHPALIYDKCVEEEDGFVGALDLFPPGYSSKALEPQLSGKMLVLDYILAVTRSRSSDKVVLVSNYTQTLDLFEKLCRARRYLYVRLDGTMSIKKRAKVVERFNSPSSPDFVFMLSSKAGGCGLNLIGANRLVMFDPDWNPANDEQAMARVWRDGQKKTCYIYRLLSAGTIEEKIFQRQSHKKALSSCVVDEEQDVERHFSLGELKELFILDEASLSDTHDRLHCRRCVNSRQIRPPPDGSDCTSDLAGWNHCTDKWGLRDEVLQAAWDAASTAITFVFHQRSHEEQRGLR

[5] = target: T2, DNA repair protein RAD52 homolog (Homo sapiens, UniProt P43351); type: functional, biochemical
T2 sequence (P43351 whole entry): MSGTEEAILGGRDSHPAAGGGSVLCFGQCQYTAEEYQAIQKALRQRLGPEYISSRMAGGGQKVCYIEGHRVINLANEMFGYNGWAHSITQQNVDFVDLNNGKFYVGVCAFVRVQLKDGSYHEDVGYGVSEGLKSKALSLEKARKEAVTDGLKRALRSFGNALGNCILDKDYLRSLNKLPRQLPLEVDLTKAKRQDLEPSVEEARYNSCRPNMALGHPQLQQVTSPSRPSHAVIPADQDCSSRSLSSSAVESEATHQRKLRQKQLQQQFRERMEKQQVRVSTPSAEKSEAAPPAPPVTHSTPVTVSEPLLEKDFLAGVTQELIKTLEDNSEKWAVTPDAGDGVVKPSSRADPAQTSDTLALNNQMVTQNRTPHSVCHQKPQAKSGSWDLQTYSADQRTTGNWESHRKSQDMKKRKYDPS

[6] = blockers of HIV-1 ZM109 envelope-driven cell-cell fusion – HeLa effector, CEM target cells, luciferase, cherry-pick, dose response (AID 652058); type: functional, cell-based;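 further: luciferase signal from HIV-1 Env mediated cell-cell fusion of effector and target cells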
[7] = off-target signal loss in HeLa-CEM21 co-culture – HeLa F-luc CTL cells, cherry-picked, counter-screen for HIV-1 Env fusion inhibitor project, dose response (AID 652040); type: functional, cell-based;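 further: potency for signal decrease marking cytotoxic or nonspecific inhibition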
[8] = blockers of HIV-1 envelope-mediated cell-cell fusion – cherry-pick, dose response (AID 652057); type: functional, cell-based
[9] = HIV-1 AD8 envelope cell-cell fusion blockers – cherry-pick, dose response (AID 652062); type: functional, cell-based;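 further: luciferase signal from cell-cell fusion driven by HIV-1 clade B AD8 Env; potency is for inhibitors of fusion seen as a drop in luminescence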
[10] = target: T3, Histone-lysine N-methyltransferase NSD2 (Homo sapiens, UniProt O96028); type: biochemical
T3 sequence (O96028 whole entry): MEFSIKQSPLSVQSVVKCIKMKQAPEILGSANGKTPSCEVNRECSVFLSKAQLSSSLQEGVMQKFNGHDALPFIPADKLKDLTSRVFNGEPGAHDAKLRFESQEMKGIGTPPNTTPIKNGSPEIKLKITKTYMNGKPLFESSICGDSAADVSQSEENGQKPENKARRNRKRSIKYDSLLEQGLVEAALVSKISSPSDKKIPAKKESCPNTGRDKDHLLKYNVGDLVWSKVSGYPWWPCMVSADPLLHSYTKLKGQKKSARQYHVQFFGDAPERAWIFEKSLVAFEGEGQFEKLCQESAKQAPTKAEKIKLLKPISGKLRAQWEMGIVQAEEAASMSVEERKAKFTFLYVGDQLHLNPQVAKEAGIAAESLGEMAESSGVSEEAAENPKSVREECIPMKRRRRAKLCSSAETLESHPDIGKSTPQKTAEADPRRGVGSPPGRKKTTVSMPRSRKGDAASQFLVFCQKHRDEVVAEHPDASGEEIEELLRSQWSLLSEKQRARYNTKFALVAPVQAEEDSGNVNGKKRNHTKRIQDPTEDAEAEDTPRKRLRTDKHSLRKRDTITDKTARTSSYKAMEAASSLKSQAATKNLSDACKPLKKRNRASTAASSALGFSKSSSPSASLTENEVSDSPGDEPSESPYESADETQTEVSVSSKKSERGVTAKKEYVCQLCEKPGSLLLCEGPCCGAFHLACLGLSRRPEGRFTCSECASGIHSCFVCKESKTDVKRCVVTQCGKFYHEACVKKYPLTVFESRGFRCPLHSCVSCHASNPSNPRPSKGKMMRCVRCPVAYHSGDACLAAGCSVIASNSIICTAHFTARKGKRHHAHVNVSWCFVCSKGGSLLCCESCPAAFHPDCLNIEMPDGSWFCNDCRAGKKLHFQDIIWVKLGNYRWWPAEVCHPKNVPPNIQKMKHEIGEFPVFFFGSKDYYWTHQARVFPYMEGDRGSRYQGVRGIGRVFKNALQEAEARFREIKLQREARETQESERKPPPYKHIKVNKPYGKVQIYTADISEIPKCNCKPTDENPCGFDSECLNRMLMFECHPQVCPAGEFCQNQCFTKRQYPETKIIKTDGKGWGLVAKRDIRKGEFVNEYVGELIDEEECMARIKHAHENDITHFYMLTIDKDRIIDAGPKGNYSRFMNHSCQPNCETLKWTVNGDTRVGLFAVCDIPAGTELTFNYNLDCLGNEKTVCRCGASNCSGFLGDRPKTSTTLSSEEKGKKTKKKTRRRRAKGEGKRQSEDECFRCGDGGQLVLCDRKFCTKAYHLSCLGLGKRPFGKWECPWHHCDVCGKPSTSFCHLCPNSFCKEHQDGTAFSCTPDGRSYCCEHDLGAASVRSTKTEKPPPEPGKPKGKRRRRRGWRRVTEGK

[11] = tested on: P388/ADR; assay: cells; type: functional; details: Mus musculus
[12] = tested on: SN12K1; assay: cells; type: functional
[13] = target: ATP-dependent molecular chaperone HSP82 (Candida albicans (strain WO-1) (Yeast), UniProt C4YTQ8); assay: steroid-induced GRE reporter decrease in yeast – S. cerevisiae, luminescence, Hsp90 inhibitor project, dose response (AID 2400); type: functional, cell-based;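 further: beta-galactosidase luminescence from glucocorticoid response element reporter as proxy for Hsp90 function; inhibitor potency where signal loss means Hsp90 inhibition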
[14] = target: Nonstructural protein 1 (Influenza A virus, UniProt Q194T2); type: functional, Influenza A virus (A/California/07/2009(H1N1))
[15] = cells; type: functional, cell-based
[16] = target: T4, Serine/threonine-protein phosphatase (Candida dubliniensis (strain CD36 / CBS 7987 / NCPF 3949 / NRRLY-17841) (Yeast), UniProt B9W6M3); assay: blockers of CaCl2-induced CDRE-lacZ signaling – S. cerevisiae, luminescence, secondary, dose response (AID 2388); type: functional, cell-based;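 further: yeast reporter cells carrying a calcineurin-responsive lacZ construct stimulated with calcium chloride; luminescent beta-galactosidase reporter signal in whole cells rather than isolated phosphatase activity; potency for inhibition where a drop in reporter signal means calcineurin blockade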
T4 sequence (B9W6M3 whole entry): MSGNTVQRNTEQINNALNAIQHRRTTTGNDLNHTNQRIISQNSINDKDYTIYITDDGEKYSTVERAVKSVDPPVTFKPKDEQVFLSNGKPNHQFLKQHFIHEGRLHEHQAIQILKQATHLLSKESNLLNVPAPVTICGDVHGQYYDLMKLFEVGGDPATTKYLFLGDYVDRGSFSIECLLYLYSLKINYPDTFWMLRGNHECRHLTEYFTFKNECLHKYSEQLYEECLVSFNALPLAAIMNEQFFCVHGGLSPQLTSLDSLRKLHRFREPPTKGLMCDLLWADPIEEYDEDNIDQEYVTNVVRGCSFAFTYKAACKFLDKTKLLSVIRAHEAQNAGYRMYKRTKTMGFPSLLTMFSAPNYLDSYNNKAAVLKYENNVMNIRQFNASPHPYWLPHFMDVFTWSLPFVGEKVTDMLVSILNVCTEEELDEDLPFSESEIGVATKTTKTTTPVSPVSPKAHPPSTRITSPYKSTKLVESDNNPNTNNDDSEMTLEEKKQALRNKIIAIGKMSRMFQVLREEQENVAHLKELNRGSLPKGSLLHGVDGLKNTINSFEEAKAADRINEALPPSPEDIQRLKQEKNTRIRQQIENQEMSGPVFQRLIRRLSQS

[17] = target: T5, Rac GTPase-activating protein 1 (Homo sapiens, UniProt Q9H0H5); assay: blockers of MgcRacGAP-driven Rac1 GTP hydrolysis – biochemical, ADP Hunter fluorescence, primary and confirmatory, confirmation (AID 624330); type: functional
T5 sequence (Q9H0H5 whole entry): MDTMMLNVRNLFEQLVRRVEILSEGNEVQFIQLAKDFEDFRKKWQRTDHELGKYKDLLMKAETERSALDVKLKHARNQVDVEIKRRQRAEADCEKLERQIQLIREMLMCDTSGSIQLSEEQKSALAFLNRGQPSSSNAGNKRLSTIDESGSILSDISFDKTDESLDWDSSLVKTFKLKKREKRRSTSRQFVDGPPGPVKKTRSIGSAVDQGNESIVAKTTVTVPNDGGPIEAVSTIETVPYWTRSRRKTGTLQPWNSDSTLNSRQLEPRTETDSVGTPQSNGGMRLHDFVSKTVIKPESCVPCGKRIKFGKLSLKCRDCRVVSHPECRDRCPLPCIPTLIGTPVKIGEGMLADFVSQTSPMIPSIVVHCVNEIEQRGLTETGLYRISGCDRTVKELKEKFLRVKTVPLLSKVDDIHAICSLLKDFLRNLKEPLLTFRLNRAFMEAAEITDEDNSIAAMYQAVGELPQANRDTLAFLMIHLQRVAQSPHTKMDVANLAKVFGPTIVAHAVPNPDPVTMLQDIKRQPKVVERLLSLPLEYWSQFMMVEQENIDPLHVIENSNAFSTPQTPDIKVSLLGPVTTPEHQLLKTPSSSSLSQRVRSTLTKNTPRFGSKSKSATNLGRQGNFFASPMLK

[18] = cells; type: functional, cell-based; remark: listed apart in the source
[19] = NIH-3T3 fibroblast cytotoxicity, dose response, cytotoxicity control, cell-based, fluorescence, Alamar Blue, secondary assay (AID 2327); type: functional;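 further: NIH-3T3 mouse fibroblasts cultured with fluconazole at 8 µg/mL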
[20] = tested on: HEK293; assay: EBV LMP1 TES2 canonical NF-kB signalling blockers – cell-based, HEK293, luciferase, cherry-pick, dose response (AID 588343); type: functional; details: Homo sapiens
[21] = fluconazole-exposed Candida albicans growth modulators – fluorescence, retest, confirmation (AID 2467); type: functional, cell-based
[22] = target: Large T antigen (Simian virus 40, UniProt P03070); type: functional, Betapolyomavirus macacae;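 further: Confirmatory-stage PubChem screen for compounds that inhibit SV40 T antigen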
Large T antigen, sequence (P03070 whole entry): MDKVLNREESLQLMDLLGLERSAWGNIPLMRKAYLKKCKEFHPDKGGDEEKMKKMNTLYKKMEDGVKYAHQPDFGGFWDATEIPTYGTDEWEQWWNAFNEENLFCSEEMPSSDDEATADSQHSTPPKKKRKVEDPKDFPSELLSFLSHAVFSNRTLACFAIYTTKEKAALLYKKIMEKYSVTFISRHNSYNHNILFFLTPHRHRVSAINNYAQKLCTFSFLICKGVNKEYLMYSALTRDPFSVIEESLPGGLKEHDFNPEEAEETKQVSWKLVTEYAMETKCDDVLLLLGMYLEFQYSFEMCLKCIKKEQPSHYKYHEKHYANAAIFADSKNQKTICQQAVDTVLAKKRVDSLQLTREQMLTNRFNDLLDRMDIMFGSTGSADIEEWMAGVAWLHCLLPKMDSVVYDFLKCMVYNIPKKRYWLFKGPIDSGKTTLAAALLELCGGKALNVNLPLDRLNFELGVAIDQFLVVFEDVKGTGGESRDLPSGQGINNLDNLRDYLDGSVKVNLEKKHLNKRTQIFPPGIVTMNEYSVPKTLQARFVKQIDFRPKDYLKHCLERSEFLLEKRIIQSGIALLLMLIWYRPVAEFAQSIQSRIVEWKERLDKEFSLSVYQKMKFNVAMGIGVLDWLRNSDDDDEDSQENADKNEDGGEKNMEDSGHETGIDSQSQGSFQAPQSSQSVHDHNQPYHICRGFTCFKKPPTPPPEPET

72 kDa type IV collagenase, sequence (P08253 whole entry): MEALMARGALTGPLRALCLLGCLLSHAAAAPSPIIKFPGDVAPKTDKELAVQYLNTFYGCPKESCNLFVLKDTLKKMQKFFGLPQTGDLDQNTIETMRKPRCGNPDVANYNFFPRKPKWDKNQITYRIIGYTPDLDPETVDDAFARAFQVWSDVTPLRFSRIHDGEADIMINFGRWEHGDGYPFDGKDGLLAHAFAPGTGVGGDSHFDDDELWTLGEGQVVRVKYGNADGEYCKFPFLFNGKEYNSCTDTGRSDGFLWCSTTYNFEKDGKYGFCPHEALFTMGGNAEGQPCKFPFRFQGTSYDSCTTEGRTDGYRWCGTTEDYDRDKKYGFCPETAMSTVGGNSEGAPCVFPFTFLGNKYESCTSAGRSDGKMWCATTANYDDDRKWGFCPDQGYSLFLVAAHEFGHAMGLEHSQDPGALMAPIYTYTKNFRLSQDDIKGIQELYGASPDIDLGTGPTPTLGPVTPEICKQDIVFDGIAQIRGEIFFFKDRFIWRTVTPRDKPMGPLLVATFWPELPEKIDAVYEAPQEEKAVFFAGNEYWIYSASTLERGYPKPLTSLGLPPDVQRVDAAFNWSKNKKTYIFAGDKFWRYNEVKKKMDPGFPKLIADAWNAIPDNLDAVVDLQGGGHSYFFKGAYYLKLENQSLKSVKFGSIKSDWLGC
26S proteasome non-ATPase regulatory subunit 14, sequence (O00487 whole entry): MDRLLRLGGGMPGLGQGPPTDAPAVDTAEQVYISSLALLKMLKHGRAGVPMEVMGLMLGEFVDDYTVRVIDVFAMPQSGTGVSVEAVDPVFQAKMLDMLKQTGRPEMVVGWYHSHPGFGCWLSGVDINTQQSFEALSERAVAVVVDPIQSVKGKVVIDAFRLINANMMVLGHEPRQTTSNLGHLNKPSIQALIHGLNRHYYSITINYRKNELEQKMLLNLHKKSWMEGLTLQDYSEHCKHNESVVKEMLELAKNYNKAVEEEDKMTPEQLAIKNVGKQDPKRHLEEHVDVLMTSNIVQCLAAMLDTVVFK
Nonstructural protein 1, sequence (Q194T2 whole entry): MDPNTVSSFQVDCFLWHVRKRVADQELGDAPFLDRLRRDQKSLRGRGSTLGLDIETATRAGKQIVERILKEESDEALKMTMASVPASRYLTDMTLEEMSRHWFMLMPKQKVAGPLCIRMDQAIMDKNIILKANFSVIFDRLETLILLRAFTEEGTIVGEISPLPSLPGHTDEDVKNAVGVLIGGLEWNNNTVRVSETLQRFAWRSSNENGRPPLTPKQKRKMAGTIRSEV
ATP-dependent molecular chaperone HSP82, sequence (C4YTQ8 whole entry): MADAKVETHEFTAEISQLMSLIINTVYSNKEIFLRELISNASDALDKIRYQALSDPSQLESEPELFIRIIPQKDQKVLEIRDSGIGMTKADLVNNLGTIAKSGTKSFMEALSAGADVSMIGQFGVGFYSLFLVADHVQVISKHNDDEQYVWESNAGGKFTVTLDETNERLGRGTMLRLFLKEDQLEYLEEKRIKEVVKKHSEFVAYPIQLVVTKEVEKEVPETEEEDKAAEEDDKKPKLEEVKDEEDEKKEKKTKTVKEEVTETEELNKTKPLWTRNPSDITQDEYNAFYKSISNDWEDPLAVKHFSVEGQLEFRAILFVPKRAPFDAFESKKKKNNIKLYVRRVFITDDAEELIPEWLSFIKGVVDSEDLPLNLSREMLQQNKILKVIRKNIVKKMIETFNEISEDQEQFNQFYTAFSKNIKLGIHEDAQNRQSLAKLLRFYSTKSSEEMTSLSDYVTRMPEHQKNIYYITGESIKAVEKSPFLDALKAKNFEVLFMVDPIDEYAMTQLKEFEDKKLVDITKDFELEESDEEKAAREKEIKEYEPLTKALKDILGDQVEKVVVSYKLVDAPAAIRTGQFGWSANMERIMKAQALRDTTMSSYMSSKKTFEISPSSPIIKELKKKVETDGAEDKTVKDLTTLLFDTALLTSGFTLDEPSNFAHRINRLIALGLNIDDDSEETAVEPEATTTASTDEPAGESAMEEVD

CC(C)(C)c1nc2ccccc2c2nnc(SCC(=O)Nc3nc4ccccc4s3)n12
IC50 [1]: > 100 µM (inactive) | IC50 [2]: > 100 µM (inactive) | IC50 [3]: 3.79 µM (active)

CCN(CC)CCN(C(=O)c1ccc2ncsc2c1)c1nc2cc3c(cc2s1)OCO3
AC50 [4]: 51.9 µM (active)

Cn1c2ccccc2c(=O)c2cc(NCCCN3CCOCC3)ccc21
AC50 [5]: 7.92 µM (active) | AC50 [4]: 11.7 µM (active)

O=C(N(c1ccccn1)c1ccccn1)C12CC3CC(CC(Cl)(C3)C1)C2
AC50 [6]: 4.96 µM (active) | AC50 [7]: 6.95 µM (active) | AC50 [8]: 5.04 µM (active) | AC50 [9]: 9.92 µM (active)

CCN(CC)CCNc1nc(SC)nc2sc3c(c12)CCN(C)C3
AC50 [5]: 5.18 µM (active) | AC50 [4]: 95.3 µM (active) | AC50 [10]: > 20 µM (inactive)

Cn1c(=O)oc2cc(S(=O)(=O)N3CCN(c4ccccc4F)CC3)ccc21
IC50 [1]: > 100 µM (inactive) | IC50 [2]: 52.9 µM (active) | IC50 [3]: 20.7 µM (active)

CC[C@]1(C(=O)OC)[C@H]2C(=O)N(Cc3ccccc3)C(=O)[C@H]2[C@H]2CN=C(SCc3ccccc3)N21
AC50 [6]: 1.16 µM (active) | AC50 [7]: 1.55 µM (active) | AC50 [8]: 1.01 µM (active) | AC50 [9]: 1.68 µM (active)

CCN(CC)CC[n+]1ccc2c(C)c3[nH]c4ccccc4c3c(C)c2c1
GI50 [11]: 29.9 µM (inactive) | GI50 [12]: 137 nM (active)

COc1ccc(NC(=O)c2cccc3c(-c4cccnc4)coc23)cc1
IC50 [1]: > 100 µM (inactive) | IC50 [2]: > 100 µM (inactive) | IC50 [3]: 15.2 µM (active)

COc1ccc(NC(=O)Nc2ccc3c(c2)CC(=O)N([C@H](C)CO)C[C@H](C)[C@H](CN(C)S(=O)(=O)c2cccs2)O3)cc1
AC50 [6]: 1.55 µM (active) | AC50 [8]: 0.96 µM (active) | AC50 [9]: 5.21 µM (active)

CCN(CC)S(=O)(=O)c1ccc(N/N=C/c2ccc(O)cc2O)nc1
EC50 [13]: > 160 µM (inactive) | IC50 [14]: 12.1 µM (active) | EC50 [15]: 4.61 µM (active) | EC50 [16]: > 180 µM (inactive) | IC50 [17]: 24.3 µM (active) | EC50 [18]: > 350 µM (not active) | EC50 [19]: 38.5 µM (active) | AC50 [20]: 5.04 µM (active) | EC50 [21]: 945 nM (active)

COc1cc2c(cc1O)CC[n+]1cc3c(OC)c(OC)ccc3cc1-2 [JATRORRHIZINE]
IC50 [22]: 10.1 µM (active) | AC50 [5]: 15.2 µM (active) | EC50 [19]: > 160 µM (inactive) | EC50 [21]: 2910 nM (active)

Reference: ChEMBL document CHEMBL1201862, “PubChem BioAssay data set” (2004)
